Assay results from US9757383B2, “Cyclohexylamine derivatives having β2 adrenergic agonist and M3 muscarinic antagonist activities” (ALMIRALL, S.A., priority 2011, dated 2017).

Columns and labels:
[1] = target: human muscarinic M3 receptor (Homo sapiens (Human), UniProt P20309); experiment: Human muscarinic M3 receptor binding assay ([3H]-NMS, CHO-K1 cell membranes); conditions: 1 nM [3H]-NMS, membranes from CHO-K1 cells
Experimental: Test 2: Human Muscarinic M1, M2, M3, M4 and M5 Receptors Binding Assays
The study of binding to human muscarinic M1, M2, M3, M4 and M5 receptors was performed using commercial membranes (Perkin Elmer) prepared from CHO-K1 cells. Radioligand binding experiments were conducted in 96 polypropylene well plates in a total volume of 200 μl. All reagents were dissolved in assay binding buffer (PBS with calcium and magnesium, SIGMA), except compounds that were dissolved in DMSO 100%. Non-specific binding (NSB) was measured in the presence of 1 μM atropine. [3H]-NMS was used as the radioligand at a concentration of 1 nM for M2, M3 and M5 and 0.3 nM for M1 and M4. […]
After an incubation period of two hours with gentle shaking, 150 μl of the reaction mix were transferred to 96 GF/C filter plates (Millipore), previously treated with wash buffer (Tris 50 mM; NaCl 100 mM; pH: 7.4), containing 0.05% PEI (Sigma) during one hour. […] After drying 30 min, 30 μl of OPTIPHASE Supermix were added to each well and radioactivity quantified using a Microbeta microplate scintillation counter.
The affinity of each test compound to the receptors was determined by using ten different concentrations ran in duplicate. IC50s were calculated using Activity Base software from IDBS and the four parameters-log equation.

[2] = target: human adrenergic beta2 receptor (Homo sapiens (Human), UniProt P07550); experiment: Human adrenergic β2 receptor binding assay (3H-CGP12177, Sf9 cell membranes); conditions: 0.6 nM 3H-CGP12177, membranes from Sf9 cells
Experimental: Test 1: Human Adrenergic β1 and β2 Receptor Binding Assays
The study of binding to human adrenergic beta1 and beta2 receptors was performed using commercial membranes prepared from Sf9 cells where they are overexpressed (Perkin Elmer). The membrane suspensions (16 μg/well for beta1 and 5 μg/well for beta2) in assay buffer (75 mM Tris/HCl with 12.5 mM MgCl2 and 2 mM EDTA pH=7.4) were incubated with 0.14 or 0.6 nM of 3H-CGP12177 (Amersham) for beta 1 and beta 2 receptors respectively in a final volume of 250 μl, in GFC Multiscreen 96 well plates (Millipore) previously treated with assay buffer containing 0.3% PEI (Sigma). Non specific binding was measured in the presence of 1 μM propanolol. Incubation was maintained for 60 minutes at room temperature and with gentle shaking. The binding reactions were terminated by filtration and washing with 2.5 volumes of Tris/HCl 50 mM pH=7.4. The affinity of each test compound to the receptor was determined by using ten different concentrations ran in duplicate. IC50s were calculated using Activity Base software from IDBS and the four parameters-log equation.

Sequence of human muscarinic M3 receptor (P20309 whole entry): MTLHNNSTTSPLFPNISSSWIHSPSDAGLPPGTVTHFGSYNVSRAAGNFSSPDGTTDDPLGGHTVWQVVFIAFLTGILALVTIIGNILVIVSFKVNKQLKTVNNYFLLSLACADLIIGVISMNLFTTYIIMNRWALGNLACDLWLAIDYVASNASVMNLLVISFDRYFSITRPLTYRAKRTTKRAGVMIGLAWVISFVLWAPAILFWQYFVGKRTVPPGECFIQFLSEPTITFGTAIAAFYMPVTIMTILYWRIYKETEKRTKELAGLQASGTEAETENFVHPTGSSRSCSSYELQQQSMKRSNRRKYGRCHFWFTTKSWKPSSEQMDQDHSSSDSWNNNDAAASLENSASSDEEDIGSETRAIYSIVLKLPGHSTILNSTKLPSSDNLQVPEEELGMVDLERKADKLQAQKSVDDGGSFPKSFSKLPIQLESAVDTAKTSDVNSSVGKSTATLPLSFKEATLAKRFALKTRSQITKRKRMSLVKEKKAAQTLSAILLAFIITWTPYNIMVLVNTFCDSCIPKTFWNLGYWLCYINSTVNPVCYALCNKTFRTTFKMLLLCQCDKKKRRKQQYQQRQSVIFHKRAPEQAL

Row | Molecule | IC50 [1] | IC50 [2]
1 | CN(CCCn1c(=O)[nH]c2cc(CNC[C@H](O)c3ccc(O)c4[nH]c(=O)ccc34)ccc21)[C@H]1CC[C@H](OC(=O)C(O)(c2cccs2)c2cccs2)CC1 (relative stereo) [Example 2, trans-4-[{3-[5-({[(2R)-2-hydroxy-2-(8-hydroxy-2-oxo-1,2-dihydroquinolin-5-yl)ethyl]amino}methyl)-2-oxo-2,3-dihydro-H-benzimidazol-1-yl]propyl}(methyl)amino]cyclohexyl hydroxy(di-2-thienyl)acetate dihydrofluoride] | 0.4 nM | 120 nM
2 | trans-4-{[2-({2-[4-(2-{[(2R)-2-hydroxy-2-(8-hydroxy-2-oxo-1,2-dihydroquinolin-5-yl)ethyl]amino}propyl)phenoxy]acetyl}amino)ethyl]amino}cyclohexyl hydroxy(di-2-thienyl)acetate dihydrofluoride [Example 20] | 3.6 nM | 3.1 nM
